Patent US10590145B2, “Tetrahydrothiopyranopyrimidine derivatives as anti-HIV agent” (SHANDONG UNIVERSITY, priority 2016, dated 2020)
Where two headings read alike, the source gives them in different places.

Tests used:
Type in all cases: cell-based
[1] = tested on: HIV-1 double mutant RES056 (Y181C/K103N); assay: Anti-HIV-1 activity in MT-4 cells (MTT method), RES056; conditions: for EC50: Human immunodeficiency virus 1, MT4, read-out: EC50 (nM) Y181C/K103N
Description: (§1) Selected compounds were screened for inhibitory activity against HIV-1 using MTT method as describe previously by Christophe. Pannecouque et al. Nat. Protoc. 3 (2008) 427-434, and Rudi Pauwels et al. J. Virol. Methods 20 (1988) 309-321. Briefly, MT-4 cells infected with HIV-1 can only survive for 5 to 7 days without any treatment, but when HIV-1 inhibitors were added, they can protect MT-4 cell from cytopathic. Serial solution of compounds was added to MT-4 cells after infected with HIV-1, MTT method was used to detect the survival rate after culture for 5 to 7 days. EC50 value was defined as compound concentration required to achieve 50% protection of MT-4 cells against HIV-1-induced cytopathic effect. In vitro anti-HIV-1 assay was supported by Rega Institute for Medical Research.
(§2) • (1) MT-4 cells infected with HIV-1 viral strains (IIIB, L100I, K103N, Y181C, Y188L, E138K, F227L/V106A, Y181C/K103N) were provided by Rega Institute for Medical Research, Katholieke Universiteit Leuven, Belgium. • (2) MTT and formazan: sigma Chemical Co. • (3) Preparation of compounds: Stock solutions (10×final concentration) of test compounds is diluted with double distilled water for 5 folds and 5 concentrations of one compound are prepared. • (4) Reference drugs: Nevirapine (NVP), Efavirenz (EFV), Etravirine (ETV), Rilpivirine (RPV) and Azidothymidine (AZT). • (5) Method (MTT method): Serial five-fold dilutions of test compounds were added to cultured MT-4 cells infected with HIV-1, after 5 to 7 days, MTT was added and cultured for a few hours. Medium was removed and lysate was added followed by formazan, OD value was determined in 690 nm and 540 nm by microplate reader, and EC50 value was calculated. 2. Method
(§3) The MTT method was described briefly as follows: 96-well plastic microtiter trays were filled with 100 μL of complete medium. Subsequently, serial of tested compounds was added (25 μL) to two series of triplicate wells so as to allow simultaneous evaluation of their effects on HIV- and mock infected cells. 50 μL of 1×10^4 cells/mL MT-4 cells were added. After cultured for 5 days at 37° C. in humidified atmosphere in the presence of 5% CO2, MTT was added and cultured for another 2 h, then medium was removed and 100 μL isopropanol solution was added to lyse the cells. Formazan crystals were added and vibrated platform shaker for 10 min to solubilize the formazan crystals. Absorbances at 690 nm and 540 nm were read by using spectrophotometrically. EC50 was defined as the concentration achieving 50% protection from the cytopathic effect of the virus in infected cells.
(§4) Selected compounds prepared as described above were assayed in MT-4 cells infected with wide-type IIIB, L100I, K103N, Y181C, Y188L, E138K or double mutant RES056 (Y181C/K103N) and F227L/V106A HIV-1 strains. Nevirapine, Efavirenz, Etravirine, Rilpivirine and Azidothymidine were selected as reference drugs. The results were listed below as EC50 value (nM)

[2] = tested on: wide-type HIV-1 (strain IIIB); assay: Anti-HIV-1 activity in MT-4 cells (MTT method), wild-type
Description: as §1, §2, §3, §4

[3] = tested on: HIV-1 Y181C mutant strain; assay: Anti-HIV-1 activity in MT-4 cells (MTT method), Y181C; conditions: for EC50: Human immunodeficiency virus 1, MT4, read-out: EC50 (nM) Y181C
Description: as §1, §2, §3, §4

[4] = tested on: HIV-1 K103N mutant strain; assay: Anti-HIV-1 activity in MT-4 cells (MTT method), K103N; conditions: for EC50: Human immunodeficiency virus 1, MT4, read-out: EC50 (nM) K103N
Description: as §1, §2, §3, §4

[5] = tested on: HIV-1 F227L/V106A double mutant strain; assay: Anti-HIV-1 activity in MT-4 cells (MTT method), F227L/V106A; conditions: for EC50: Human immunodeficiency virus 1, MT4, read-out: EC50 (nM) F227L/V106A
Description: as §1, §2, §3, §4

[6] = tested on: HIV-1 Y188L mutant strain; assay: Anti-HIV-1 activity in MT-4 cells (MTT method), Y188L; conditions: for EC50: Human immunodeficiency virus 1, MT4, read-out: EC50 (nM) Y188L
Description: as §1, §2, §3, §4

[7] = tested on: HIV-1 L100I mutant strain; assay: Anti-HIV-1 activity in MT-4 cells (MTT method), L100I; conditions: for EC50: Human immunodeficiency virus 1, MT4, read-out: EC50 (nM) L100I
Description: as §1, §2, §3, §4

[8] = tested on: HIV-1 E138K mutant strain; assay: Anti-HIV-1 activity in MT-4 cells (MTT method), E138K; conditions: Human immunodeficiency virus 1, MT4, read-out: EC50 (nM) E138K
Description: as §1, §2, §3, §4

[9] = Human immunodeficiency virus 1, IIIB, MT4, read-out: EC50 (nM) wt

Cc1cc(C#N)cc(C)c1Oc1nc(NC2CCN(c3cccc(C#N)c3)CC2)nc2c1SCCC2 [IIC-1-1, 4-((2-((1-(3-cyanophenyl)piperidin-4-yl)amino)-7,8-dihydro-6H-thiopyrano[3,2-d]pyrimidin-4-yl)oxy)-3,5-dimethylbenzonitrile]
EC50 [1]: > 100 nM | EC50 [2, 9]: 10 to 100 nM | EC50 [3]: > 100 nM | EC50 [4]: 10 to 100 nM | EC50 [5]: > 100 nM | EC50 [6]: > 100 nM | EC50 [7]: > 100 nM | EC50 [8]: > 100 nM

Cc1cc(C#N)cc(C)c1Oc1nc(NC2CCN(Cc3ccc(S(C)(=O)=O)cc3)CC2)nc2c1SCCC2 [IIA-1-11, 3,5-dimethyl-4-((2-((1-(4-(methylsulfonyl)benzyl)piperidin-4-yl)amino)-7,8-dihydro-6H-thiopyrano[3,2-d]pyrimidin-4-yl)oxy)benzonitrile]
EC50 [1]: 10 to 100 nM | EC50 [2, 9]: < 10 nM | EC50 [3]: 10 to 100 nM | EC50 [4]: < 10 nM | EC50 [5]: 10 to 100 nM | EC50 [6]: 10 to 100 nM | EC50 [7]: 10 to 100 nM | EC50 [8]: 10 to 100 nM

Cc1cc(C#N)cc(C)c1Oc1nc(NC2CCN(Cc3cccc(S(N)(=O)=O)c3)CC2)nc2c1SCCC2 [IIA-1-4, 3-((4-((4-(4-cyano-2,6-dimethylphenoxy)-7,8-dihydro-6H-thiopyrano[3,2-d]pyrimidin-2-yl)amino)piperidin-1-yl)methyl)benzenesulfonamide]
EC50 [1]: > 100 nM | EC50 [2, 9]: < 10 nM | EC50 [3]: 10 to 100 nM | EC50 [4]: 10 to 100 nM | EC50 [5]: 10 to 100 nM | EC50 [6]: 10 to 100 nM | EC50 [7]: > 100 nM | EC50 [8]: 10 to 100 nM

Cc1cc(C#N)cc(C)c1Oc1nc(NC2CCN(Cc3ccccc3C#N)CC2)nc2c1SCCC2 [IIA-1-7, 4-((2-((1-(2-cyanobenzyl)piperidin-4-yl)amino)-7,8-dihydro-6H-thiopyrano[3,2-d]pyrimidin-4-yl)oxy)-3,5-dimethylbenzonitrile]
EC50 [1]: > 100 nM | EC50 [2, 9]: < 10 nM | EC50 [3]: 10 to 100 nM | EC50 [4]: 10 to 100 nM | EC50 [5]: > 100 nM | EC50 [6]: > 100 nM | EC50 [7]: > 100 nM | EC50 [8]: 10 to 100 nM

Cc1cc(C#N)cc(C)c1Oc1nc(NC2CCN(Cc3cccc(C(N)=O)c3)CC2)nc2c1SCCC2 [IIA-1-9, 3-((4-((4-(4-cyano-2,6-dimethylphenoxy)-7,8-dihydro-6H-thiopyrano[3,2-d]pyrimidin-2-yl)amino)piperidin-1-yl)methyl)benzamide]
EC50 [1]: > 100 nM | EC50 [2, 9]: < 10 nM | EC50 [3]: 10 to 100 nM | EC50 [4]: 10 to 100 nM | EC50 [5]: > 100 nM | EC50 [6]: 10 to 100 nM | EC50 [7]: 10 to 100 nM | EC50 [8]: 10 to 100 nM

Cc1ccnc2c1NC(=O)c1cccnc1N2C1CC1 [NVP, Nevirapine, reference compound]
EC50 [1]: > 100 nM | EC50 ([2]; Human immunodeficiency virus 1, MT4, MT-4 cells, 50% protection against HIV-1-induced cytopathicity, wt (IIIB), read-out: EC50 (nM) wt): > 100 nM | EC50 [3]: > 100 nM | EC50 [4]: > 100 nM | EC50 [5]: > 100 nM | EC50 [6]: > 100 nM | EC50 [7]: > 100 nM | EC50 [8]: > 100 nM

Cc1cc(C#N)cc(C)c1Oc1nc(NC2CCN(Cc3cccc(C#N)c3)CC2)nc2c1SCCC2 [IIA-1-6, 4-((2-((1-(3-cyanobenzyl)piperidin-4-yl)amino)-7,8-dihydro-6H-thiopyrano[3,2-d]pyrimidin-4-yl)oxy)-3,5-dimethylbenzonitrile]
EC50 [1]: > 100 nM | EC50 [2, 9]: < 10 nM | EC50 [3]: 10 to 100 nM | EC50 [4]: 10 to 100 nM | EC50 [5]: > 100 nM | EC50 [6]: 10 to 100 nM | EC50 [7]: > 100 nM | EC50 [8]: 10 to 100 nM

Cc1cc(C#N)cc(C)c1Oc1nc(NC2CCN(Cc3ccc([N+](=O)[O-])cc3)CC2)nc2c1SCCC2 [IIA-1-12, 3,5-dimethyl-4-((2-((1-(4-nitrobenzyl)piperidin-4-yl)amino)-7,8-dihydro-6H-thiopyrano[3,2-d]pyrimidin-4-yl)oxy)benzonitrile]
EC50 [1]: > 100 nM | EC50 [2, 9]: < 10 nM | EC50 [3]: > 100 nM | EC50 [4]: 10 to 100 nM | EC50 [5]: > 100 nM | EC50 [6]: 10 to 100 nM | EC50 [7]: > 100 nM | EC50 [8]: 10 to 100 nM

Cc1cc(C)c(Oc2nc(NC3CCN(Cc4ccc(S(N)(=O)=O)cc4)CC3)nc3c2SCCC3)c(C)c1 [IIA-1-2, 4-((4-((4-(mesityloxy)-7,8-dihydro-6H-thiopyrano[3,2-d]pyrimidin-2-yl)amino)piperidin-1-yl)methyl)benzenesulfonamide]
EC50 [1]: > 100 nM | EC50 [2, 9]: < 10 nM | EC50 [3]: 10 to 100 nM | EC50 [4]: < 10 nM | EC50 [5]: 10 to 100 nM | EC50 [6]: 10 to 100 nM | EC50 [7]: 10 to 100 nM | EC50 [8]: 10 to 100 nM

Cc1cc(C#N)cc(C)c1Oc1nc(NC2CCN(c3cccc(C(N)=O)c3)CC2)nc2c1SCCC2 [IIC-1-2, 3-(4-((4-(4-cyano-2,6-dimethylphenoxy)-7,8-dihydro-6H-thiopyrano[3,2-d]pyrimidin-2-yl)amino)piperidin-1-yl)benzamide]
EC50 [1]: 10 to 100 nM | EC50 [2, 9]: < 10 nM | EC50 [3]: < 10 nM | EC50 [4]: < 10 nM | EC50 [5]: > 100 nM | EC50 [6]: < 10 nM | EC50 [7]: 10 to 100 nM | EC50 [8]: 10 to 100 nM

Cc1cc(/C=C/C#N)cc(C)c1Oc1nc(NC2CCN(Cc3ccc(S(N)(=O)=O)cc3)CC2)nc2c1SCCC2 [IIA-1-3, (E)-4-((4-((4-(4-(2-cyanovinyl)-2,6-dimethylphenoxy)-7,8-dihydro-6H-thiopyrano[3,2-d]pyrimidin-2-yl)amino)piperidin-1-yl)methyl)benzenesulfonamide]
EC50 [1]: 10 to 100 nM | fold more potent than ETV against Y181C/K103N ([1]; Y181C/K103N, relative to ETV): 2 fold | EC50 [2, 9]: < 10 nM | EC50 [3]: < 10 nM | fold more potent than ETV against Y181C ([3]; Y181C, relative to ETV): 2 fold | EC50 [4]: < 10 nM | Activity against K103N compared with ETV ([4]; K103N, relative to ETV): comparable | fold more potent than ETV against F227L/V106A ([5]; F227L/V106A, relative to ETV): 2 fold | EC50 [5]: < 10 nM | EC50 [6]: 10 to 100 nM | Activity against Y188L compared with ETV ([6]; Y188L, relative to ETV): comparable | EC50 [7]: < 10 nM | fold more potent than ETV against L100I ([7]; L100I, relative to ETV): 2 fold | EC50 [8]: 10 to 100 nM

Cc1cc(C#N)cc(C)c1Oc1nc(NC2CCN(Cc3ccc(N)cc3)CC2)nc2c1SCCC2 [IIA-1-13, 4-((2-((1-(4-aminobenzyl)piperidin-4-yl)amino)-7,8-dihydro-6H-thiopyrano[3,2-d]pyrimidin-4-yl)oxy)-3,5-dimethylbenzonitrile]
EC50 [1]: > 100 nM | EC50 [2, 9]: < 10 nM | EC50 [3]: 10 to 100 nM | EC50 [4]: < 10 nM | EC50 [5]: > 100 nM | EC50 [6]: 10 to 100 nM | EC50 [7]: 10 to 100 nM | EC50 [8]: 10 to 100 nM

Cc1cc(C#N)cc(C)c1Oc1nc(NC2CCN(Cc3ccc(S(N)(=O)=O)cc3)CC2)nc2c1SCCC2 [IIA-1-1, 4-((4-((4-(4-cyano-2,6-dimethylphenoxy)-7,8-dihydro-6H-thiopyrano[3,2-d]pyrimidin-2-yl)amino)piperidin-1-yl)methyl)benzenesulfonamide]
EC50 [1]: 10 to 100 nM | EC50 [2, 9]: < 10 nM | EC50 [3]: 10 to 100 nM | EC50 [4]: < 10 nM | EC50 [5]: 10 to 100 nM | EC50 [6]: < 10 nM | EC50 [7]: 10 to 100 nM | EC50 [8]: < 10 nM

Cc1cc(C#N)cc(C)c1Oc1nc(Nc2ccc(C#N)cc2)nc(N)c1Br [ETV, Etravirine, reference compound]
EC50 [1]: 10 to 100 nM | EC50 [2, 9]: < 10 nM | EC50 [3]: 10 to 100 nM | EC50 [4]: < 10 nM | EC50 [5]: 10 to 100 nM | EC50 [6]: 10 to 100 nM | EC50 [7]: < 10 nM | EC50 [8]: 10 to 100 nM
